Data reported in patent US7994185B2, “Benzene sulfonamide thiazole and oxazole compounds” (Glaxo Smith Kline LLC, priority 2008, dated 2011).
pIC50: −log10 of the molar value. Like-named read-outs stand apart in the source and are kept apart here.

How the values were obtained:
[1] = tested on: Human colon tumor cells (Colo205); assay: Cell growth inhibition assay (CellTiter-Glo), Colo205; type: cell-based; details: COLO 205, Table 2b, later runs, average for the one or more runs, categorized, read-out: IC50 for Colo205
Summary of the method: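 Read-out was CellTiter-Glo luminescence (total ATP as a cell-number surrogate), expressed as % inhibition against DMSO vehicle wells. Before that, cells grown in RPMI/10% FBS were treated for 3 days at 37 °C with ten 1:3-spaced compound concentrations, final DMSO 0.2%.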

[2] = target: T1, BRAFV600E full-length (amino acids 2-766) (Homo sapiens, UniProt P15056, V600E); assay: B-Raf Accelerated MEK ATPase assay (BRAMA); type: biochemical; details: later runs, average pIC50 for the one or more runs, categorized; for IC50: Table 1b, read-out: B-Raf pIC50 (converted); for pIC50: B-Raf pIC50, Table 1b
T1 construct: His6-tagged BRAFV600E full-length (amino acids 2-766); His6; made in house; host or cells: baculovirus expression system (insect cells)
Summary of the method: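 Coupled-enzyme readout: ADP generated by MEK-mediated ATP hydrolysis, uncoupled from ERK phosphorylation, is linked to NADH oxidation through pyruvate kinase and lactate dehydrogenase.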

[3] = tested on: Human melanoma cancer cells (SK-MEL-28); assay: Cell growth inhibition assay (CellTiter-Glo), SK-MEL-28; type: cell-based; details: SK-MEL-28, Table 3b, later runs, average for the one or more runs, categorized, read-out: IC50 for SK-MEL-28

T1 sequence (P15056 2-766 V600E): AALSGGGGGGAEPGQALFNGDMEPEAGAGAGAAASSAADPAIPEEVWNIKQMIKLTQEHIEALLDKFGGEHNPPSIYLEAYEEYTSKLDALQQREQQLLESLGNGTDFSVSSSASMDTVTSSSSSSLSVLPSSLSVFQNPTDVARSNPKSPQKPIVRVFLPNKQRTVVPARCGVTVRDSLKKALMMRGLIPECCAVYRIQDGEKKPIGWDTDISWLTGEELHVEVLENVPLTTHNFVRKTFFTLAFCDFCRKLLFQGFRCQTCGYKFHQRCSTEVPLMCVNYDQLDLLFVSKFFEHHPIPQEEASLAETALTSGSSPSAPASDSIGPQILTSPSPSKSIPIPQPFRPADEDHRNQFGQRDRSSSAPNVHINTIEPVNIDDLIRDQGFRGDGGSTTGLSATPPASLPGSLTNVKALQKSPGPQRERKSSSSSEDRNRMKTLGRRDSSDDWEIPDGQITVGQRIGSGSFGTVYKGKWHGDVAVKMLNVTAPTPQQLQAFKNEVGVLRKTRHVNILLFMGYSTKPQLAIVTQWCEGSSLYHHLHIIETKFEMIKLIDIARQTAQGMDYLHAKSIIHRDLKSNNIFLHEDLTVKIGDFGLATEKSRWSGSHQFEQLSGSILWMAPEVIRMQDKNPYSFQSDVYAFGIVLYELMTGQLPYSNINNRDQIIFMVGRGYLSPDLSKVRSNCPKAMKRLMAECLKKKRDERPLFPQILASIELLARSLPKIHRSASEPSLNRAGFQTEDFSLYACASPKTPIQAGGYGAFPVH

In the case of `Cc1nccc(-c2sc(C(C)(C)C)nc2-c2cccc(NS(=O)(=O)c3ccccc3F)c2F)n1` [Example 225, N-{3-[2-(1,1-dimethylethyl)-5-(2-methyl-4-pyrimidinyl)-1,3-thiazol-4-yl]-2-fluorophenyl}-2-fluorobenzenesulfonamide], the pIC50 [1] was over 7.00, the IC50 [2] was 3.16 to 31.6 nM and the pIC50 [3] was over 7.00.

Work on `CCOC(=O)CCc1nccc(-c2sc(C(C)(C)C)nc2-c2cccc(NS(=O)(=O)c3c(F)cccc3F)c2F)n1` [Example 226, ethyl 3-{4-[4-(3-{[(2,6-difluorophenyl)sulfonyl]amino}-2-fluorophenyl)-2-(1,1-dimethylethyl)-1,3-thiazol-5-yl]-2-pyrimidinyl}propanoate] yielded a pIC50 [1] of over 7.00, a pIC50 [2] of at least 8.50 and a pIC50 [3] of over 7.00.

In the case of `O=S(=O)(Nc1cccc(-c2nc(N3CCOCC3)sc2-c2ccncn2)c1F)c1cc(F)ccc1F` [Example 227, 2,5-difluoro-N-{2-fluoro-3-[2-(4-morpholinyl)-5-(4-pyrimidinyl)-1,3-thiazol-4-yl]phenyl}benzenesulfonamide], the pIC50 [1] was over 7.00, the pIC50 [2] was at least 8.50 and the pIC50 [3] was over 7.00.

Compound `CC(C)(C)c1nc(-c2cccc(NS(=O)(=O)c3cc(F)ccc3F)c2Cl)c(-c2ccncn2)s1` [Example 228, N-{2-chloro-3-[2-(1,1-dimethylethyl)-5-(4-pyrimidinyl)-1,3-thiazol-4-yl]phenyl}-2,5-difluorobenzenesulfonamide] has a pIC50 [1] of over 7.00, a pIC50 [2] of at least 8.50 and a pIC50 [3] of over 7.00.

Work on `Cc1nccc(-c2sc(C(C)(C)C)nc2-c2cccc(NS(=O)(=O)c3cc(F)ccc3F)c2Cl)n1` [Example 229, N-{2-chloro-3-[2-(1,1-dimethylethyl)-5-(2-methyl-4-pyrimidinyl)-1,3-thiazol-4-yl]phenyl}-2,5-difluorobenzenesulfonamide] yielded a pIC50 [1] of over 7.00, an IC50 [2] of 3.16 to 31.6 nM and a pIC50 [3] of over 7.00.

With `CC(C)(C)c1nc(-c2cccc(NS(=O)(=O)c3cccnc3)c2F)c(-c2ccnc(N)n2)s1` [Example 230, N-{3-[5-(2-amino-4-pyrimidinyl)-2-(1,1-dimethylethyl)-1,3-thiazol-4-yl]-2-fluorophenyl}-3-pyridinesulfonamide] the pIC50 [1] was over 7.00, the pIC50 [2] was at least 8.50 and the pIC50 [3] was over 7.00.

Compound `CC(C)(C)c1nc(-c2cccc(NS(=O)(=O)c3ccco3)c2F)c(-c2ccnc(N)n2)s1` [Example 231, N-{3-[5-(2-amino-4-pyrimidinyl)-2-(1,1-dimethylethyl)-1,3-thiazol-4-yl]-2-fluorophenyl}-2-furansulfonamide] has a pIC50 [1] of over 7.00, a pIC50 [2] of at least 8.50 and a pIC50 [3] of over 7.00.

In the case of `CC(C)(C)c1nc(-c2cccc(NS(=O)(=O)c3cccs3)c2F)c(-c2ccnc(N)n2)s1` [Example 232, N-{3-[5-(2-amino-4-pyrimidinyl)-2-(1,1-dimethylethyl)-1,3-thiazol-4-yl]-2-fluorophenyl}-2-thiophenesulfonamide], the pIC50 [1] was over 7.00, the pIC50 [2] was at least 8.50 and the pIC50 [3] was over 7.00.

In the case of `CC(C)(C)c1nc(-c2cccc(NS(=O)(=O)c3ccsc3)c2F)c(-c2ccnc(N)n2)s1` [Example 233, N-{3-[5-(2-amino-4-pyrimidinyl)-2-(1,1-dimethylethyl)-1,3-thiazol-4-yl]-2-fluorophenyl}-3-thiophenesulfonamide], the pIC50 [1] was over 7.00, the pIC50 [2] was at least 8.50 and the pIC50 [3] was over 7.00.

Work on `CC(C)(C)c1nc(-c2cccc(NS(=O)(=O)c3ccoc3)c2F)c(-c2ccnc(N)n2)s1` [Example 234, N-{3-[5-(2-amino-4-pyrimidinyl)-2-(1,1-dimethylethyl)-1,3-thiazol-4-yl]-2-fluorophenyl}-3-furansulfonamide] yielded a pIC50 [1] of over 7.00, a pIC50 [2] of at least 8.50 and a pIC50 [3] of over 7.00.

For `Cc1csc(S(=O)(=O)Nc2cccc(-c3nc(C(C)(C)C)sc3-c3ccnc(N)n3)c2F)c1` [Example 235, N-{3-[5-(2-amino-4-pyrimidinyl)-2-(1,1-dimethylethyl)-1,3-thiazol-4-yl]-2-fluorophenyl}-4-methyl-2-thiophenesulfonamide], the pIC50 [1] was over 7.00, the IC50 [2] was 3.16 to 31.6 nM and the pIC50 [3] was over 7.00.

With `CC(C)(C)c1nc(-c2cccc(NS(=O)(=O)c3c(F)cccc3F)c2Cl)c(-c2ccnc(N)n2)s1` [Example 236, N-{3-[5-(2-amino-4-pyrimidinyl)-2-(1,1-dimethylethyl)-1,3-thiazol-4-yl]-2-chlorophenyl}-2,6-difluorobenzenesulfonamide] the pIC50 [1] was over 7.00, the pIC50 [2] was at least 8.50 and the pIC50 [3] was over 7.00.

Compound `CC(C)(C)c1nc(-c2cccc(NS(=O)(=O)c3c(F)cccc3F)c2Cl)c(-c2ccncn2)s1` [Example 237, N-{2-chloro-3-[2-(1,1-dimethylethyl)-5-(4-pyrimidinyl)-1,3-thiazol-4-yl]phenyl}-2,6-difluorobenzenesulfonamide] has a pIC50 [1] of over 7.00, an IC50 [2] of 3.16 to 31.6 nM and a pIC50 [3] of over 7.00.

Compound `Nc1nccc(-c2sc(C3CCOCC3)nc2-c2cccc(NS(=O)(=O)c3c(F)cccc3F)c2Cl)n1` [Example 238, N-{3-[5-(2-amino-4-pyrimidinyl)-2-(tetrahydro-2H-pyran-4-yl)-1,3-thiazol-4-yl]-2-chlorophenyl}-2,6-difluorobenzenesulfonamide] has a pIC50 [1] of over 7.00, a pIC50 [2] of at least 8.50 and a pIC50 [3] of over 7.00.

Compound `Cc1nccc(-c2sc(C(C)(C)C)nc2-c2cccc(NS(=O)(=O)c3c(F)cccc3F)c2Cl)n1` [Example 239, N-{2-chloro-3-[2-(1,1-dimethylethyl)-5-(2-methyl-4-pyrimidinyl)-1,3-thiazol-4-yl]phenyl}-2,6-difluorobenzenesulfonamide] has a pIC50 [1] of over 7.00, an IC50 [2] of 3.16 to 31.6 nM and a pIC50 [3] of over 7.00.

With `O=S(=O)(Nc1cccc(-c2nc(N3CCOCC3)sc2-c2ccncn2)c1Cl)c1cc(F)ccc1F` [Example 240, N-{2-chloro-3-[2-(4-morpholinyl)-5-(4-pyrimidinyl)-1,3-thiazol-4-yl]phenyl}-2,5-difluorobenzenesulfonamide] the pIC50 [1] was over 7.00, the pIC50 [2] was at least 8.50 and the pIC50 [3] was over 7.00.

`CC(C)(C)c1nc(-c2cccc(NS(=O)(=O)c3cc(F)ccc3F)c2Cl)c(-c2ccnc(N)n2)s1` [Example 241, N-{3-[5-(2-amino-4-pyrimidinyl)-2-(1,1-dimethylethyl)-1,3-thiazol-4-yl]-2-chlorophenyl}-2,5-difluorobenzenesulfonamide] showed a pIC50 [1] of over 7.00, a pIC50 [2] of at least 8.50 and a pIC50 [3] of over 7.00.

For `Nc1nccc(-c2sc(C3CCOCC3)nc2-c2cccc(NS(=O)(=O)c3cc(F)ccc3F)c2Cl)n1` [Example 242, N-{3-[5-(2-amino-4-pyrimidinyl)-2-(tetrahydro-2H-pyran-4-yl)-1,3-thiazol-4-yl]-2-chlorophenyl}-2,5-difluorobenzenesulfonamide], the pIC50 [1] was over 7.00, the pIC50 [2] was at least 8.50 and the pIC50 [3] was over 7.00.

`O=S(=O)(Nc1cccc(-c2nc(C3CCOCC3)sc2-c2ccncn2)c1Cl)c1cc(F)ccc1F` [Example 243, N-{2-chloro-3-[5-(4-pyrimidinyl)-2-(tetrahydro-2H-pyran-4-yl)-1,3-thiazol-4-yl]phenyl}-2,5-difluorobenzenesulfonamide] gave a pIC50 [1] of over 7.00, a pIC50 [2] of at least 8.50 and a pIC50 [3] of over 7.00.

With `O=S(=O)(Nc1cccc(-c2nc(C3CCOCC3)sc2-c2ccncn2)c1F)c1cc(F)ccc1F` [Example 244, 2,5-difluoro-N-{2-fluoro-3-[5-(4-pyrimidinyl)-2-(tetrahydro-2H-pyran-4-yl)-1,3-thiazol-4-yl]phenyl}benzenesulfonamide] the pIC50 [1] was over 7.00, the pIC50 [2] was at least 8.50 and the pIC50 [3] was over 7.00.

`Nc1nccc(-c2sc(C3CCOCC3)nc2-c2cccc(NS(=O)(=O)c3cc(F)ccc3F)c2F)n1` [Example 245, N-{3-[5-(2-amino-4-pyrimidinyl)-2-(tetrahydro-2H-pyran-4-yl)-1,3-thiazol-4-yl]-2-fluorophenyl}-2,5-difluorobenzenesulfonamide] showed a pIC50 [1] of over 7.00, a pIC50 [2] of at least 8.50 and a pIC50 [3] of over 7.00.

`Cc1nccc(-c2sc(C3CCOCC3)nc2-c2cccc(NS(=O)(=O)c3cc(F)ccc3F)c2F)n1` [Example 246, 2,5-difluoro-N-{2-fluoro-3-[5-(2-methyl-4-pyrimidinyl)-2-(tetrahydro-2H-pyran-4-yl)-1,3-thiazol-4-yl]phenyl}benzenesulfonamide] was tested, and the pIC50 [1] was over 7.00, the IC50 [2] was 3.16 to 31.6 nM and the pIC50 [3] was over 7.00.

With `CC(C)(C)c1nc(-c2cccc(NS(=O)(=O)c3c(F)cccc3F)c2F)c(-c2ccnc(CCCO)n2)s1` [Example 247, N-(3-{2-(1,1-dimethylethyl)-5-[2-(3-hydroxypropyl)-4-pyrimidinyl]-1,3-thiazol-4-yl}-2-fluorophenyl)-2,6-difluorobenzenesulfonamide] the pIC50 [1] was over 7.00, the IC50 [2] was 3.16 to 31.6 nM and the pIC50 [3] was over 7.00.

Compound `CC(C)(O)CCc1nccc(-c2sc(N3CCOCC3)nc2-c2cccc(NS(=O)(=O)c3cc(F)ccc3F)c2F)n1` [Example 248, 2,5-difluoro-N-{2-fluoro-3-[5-[2-(3-hydroxy-3-methylbutyl)-4-pyrimidinyl]-2-(4-morpholinyl)-1,3-thiazol-4-yl]phenyl}benzenesulfonamide] has a pIC50 [1] of over 7.00, an IC50 [2] of 3.16 to 31.6 nM and a pIC50 [3] of over 7.00.

For `CC(C)(O)CCc1nccc(-c2sc(C(C)(C)C)nc2-c2cccc(NS(=O)(=O)c3c(F)cccc3F)c2F)n1` [Example 249, N-(3-{2-(1,1-dimethylethyl)-5-[2-(3-hydroxy-3-methylbutyl)-4-pyrimidinyl]-1,3-thiazol-4-yl}-2-fluorophenyl)-2,6-difluorobenzenesulfonamide], the pIC50 [1] was over 7.00, the IC50 [2] was 3.16 to 31.6 nM and the pIC50 [3] was over 7.00.
